Reference: paper PMC6291243 (The Journal of organic chemistry, 2018)

How the values were obtained:
LipM = target: T1, LipM (Streptomyces sp. SANK 60405, UniProt D4QF26); assay: HPLC of UDP-sugar, coupled with phosphorylase; format: biochemical; conditions: generated in situ from 13b; UTP
T1 sequence (D4QF26 1-233): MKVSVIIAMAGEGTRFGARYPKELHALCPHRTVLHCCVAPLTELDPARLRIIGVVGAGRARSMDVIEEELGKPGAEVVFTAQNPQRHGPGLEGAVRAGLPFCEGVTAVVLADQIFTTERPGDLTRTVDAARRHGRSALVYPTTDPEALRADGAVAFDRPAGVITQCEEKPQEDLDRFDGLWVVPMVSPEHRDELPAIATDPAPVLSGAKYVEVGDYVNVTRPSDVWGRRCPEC

Mur20 = Mur20 (Streptomyces sp. NRRL 30471, UniProt F2WUD2); assay: HPLC, specific activity; format: biochemical; conditions: amine donor; 1 mM 11a, 50 mM potassium phosphate pH 7.5, 30 °C

SMILES | HPLC of UDP-sugar, coupled with phosphorylase (LipM) | HPLC, specific activity (Mur20)
NC[C@H]1O[C@H](OP(=O)(O)O)C[C@@H]1O [5-amino-2,5-dideoxy-α-D-ribose-1-phosphate] | either enzyme was substituted with the respective orthologous proteins LipP or LipM | –
N[C@@H](Cc1ccc(O)cc1)C(=O)O [L-Tyr] | – | the specific activity for Mur20 was highest using L-Tyr as an amine donor
